Measured values reported in patent US20250034139A1, “AMINE COMPOUNDS HAVING ANTI-INFLAMMATORY, ANTIFUNGAL, ANTIPARASITIC, AND ANTICANCER ACTIVITY” (PHARMA CINQ, LLC, priority 2013, published 2025).

Experiments:
[1] = tested on: PC3 human prostate cancer cells; experiment: Example S: in vitro anticancer screen, PC-3 cells, Wst1; format: cell-based; settings: approximately 20 hours, Wst1
Method: Activity against PC3 human prostate cancer cells in vitro was assessed by a similar method. PC-3 prostate cancer cells were plated at 2×10^4 cells/well in 96 well flat bottom tissue culture plates, and incubated for approximately 20 hours with vehicle or test compounds at concentrations of 0.4, 0.5 or 2.5 μM as indicated for specific compounds in the right-hand column of Table 37. A 1/10th volume of Wst1 dye was added/well and incubated for two hours in the cell culture incubator. Samples were analyzed in triplicate on an EL800 Universal Microplate Reader at 450 nm, reference wavelength 630 nm.
(§1) Numerical values in the Table 37 represent percent of cancer cell survival relative to vehicle treated cells at the indicated concentrations, with values under 100 indicating anticancer cytotoxic activity at the drugs concentrations tested.

[2] = tested on: 4T1 murine breast cancer cells; experiment: Example S: in vitro anticancer screen, 4T1 cells, Wst1; format: cell-based, mouse; settings: 18 hr, Wst1; for viability at 1 µM / viability at 5 µM: Mus musculus, 4T1, 18 h; for viability at 1 µM: read-out: 4T1 1 μM, percent of cancer cell survival relative to vehicle treated cells; for viability at 5 µM: read-out: 4T1 5 μM, percent of cancer cell survival relative to vehicle treated cells
Method: Anticancer activity against 4T1 murine breast cancer cells cancer cells was assessed in vitro by seeding 1×10^4 cells/well in flat bottom culture plates, then treating with selected 1 μM or 5 μM concentrations of compounds for 18 hr after plating. Then 10 μL of Wst1 dye reagent, a tetrazolium dye indicator for […], was added/well and incubated approximately 2 hr before being assayed on the Biotek EL800 Universal microplate reader (450 nm, reference 630 nm).
as §1

[3] = tested on: PC-3 prostate cancer cells; experiment: Example T: sensitisation of PC-3 cells to doxorubicin, oxaliplatin, paclitaxel or vincristine, Wst1; format: cell-based, human; settings: PC-3 cells, 72 hours; for viability at 0.4 µM: compound 0.4 μM alone; for Doxorubicin 3.5 μM: percent cell survival / Oxaliplatin 100 μM: percent cell survival / Paclitaxel 50 μM: percent cell survival / Vincristine 100 nM: percent cell survival: chemotherapy agent alone normalized to 100%; for viability at 0.5 µM: compound 0.5 μM alone
THP-1 cells = experiment: Example D: LPS-triggered THP-1 cell death assay, acute/5-hour and chronic/48-hour; format: cell-based, Human; settings: for Viable cell percent change, Chronic/48-hour, Mean: 10 ng/ml LPS, 0.1 μM test compound; for activity relative to AC in the LPS-triggered THP-1 cell death assay, in words: 0.1 μM, 5-hour and 48-hour time points
Method: Compounds of the invention were tested at 0.1 μM versus AC in the LPS-triggered THP-1 cell death assay. Both acute/5-hour and chronic/48-hour phases of cell death were assessed. Compounds were screened in batches with DMSO as the negative control and AC as the high activity control.

[4] = Homo sapiens, PC-3, read-out: PC-3, percent of cancer cell survival relative to vehicle treated cells
[5] = Homo sapiens, Wst1, vehicle = 100, read-out: No Chemo: percent cell survival
[6] = compound 0.4 μM + doxorubicin 3.5 μM
[7] = compound 0.4 μM + oxaliplatin 100 μM
[8] = compound 0.4 μM + paclitaxel 50 μM
[9] = compound 0.4 μM + vincristine 100 nM
[10] = Homo sapiens, PC-3, 2.5 μM, read-out: PC-3, percent of cancer cell survival relative to vehicle treated cells
[11] = Homo sapiens, compound 2.5 μM alone, Wst1, vehicle = 100, read-out: No Chemo: percent cell survival
[12] = compound 2.5 μM + doxorubicin 3.5 μM
[13] = compound 2.5 μM + oxaliplatin 100 μM
[14] = compound 2.5 μM + paclitaxel 50 μM
[15] = compound 2.5 μM + vincristine 100 nM
[16] = compound 0.5 μM + doxorubicin 3.5 μM
[17] = compound 0.5 μM + oxaliplatin 100 μM
[18] = compound 0.5 μM + paclitaxel 50 μM
[19] = compound 0.5 μM + vincristine 100 nM

Structure (SMILES)	viability at 0.4 µM [1, 4] [%]	viability at 1 µM ([2]; 1 μM) [%]	viability at 5 µM ([2]; 5 μM) [%]	viability at 0.4 µM [3, 5] [%]	Doxorubicin 3.5 μM: percent cell survival [3, 6] [%]	Oxaliplatin 100 μM: percent cell survival [3, 7] [%]	Paclitaxel 50 μM: percent cell survival [3, 8] [%]	Vincristine 100 nM: percent cell survival [3, 9] [%]	Viable cell percent change, Chronic/48-hour, Mean (THP-1 cells) [%]	other results
c1ccc(COc2cccc(CNc3ccnc4ccccc34)c2)cc1 [BU, N-[3-(Benzyloxy)benzyl]quinolin-4-amine]	24	17.6	21.4	24	48.1	57.2	31	26.7	18.10	activity relative to AC in the LPS-triggered THP-1 cell death assay, in words (THP-1 cells): equivalent activity to AC at both the 5-hour and 48-hour time points
c1cncc(CNc2ccnc3ccccc23)c1 [BY, N-(Pyridin-3-ylmethyl)quinolin-4-amine]	–	107	209	–	–	–	–	–	39.64	viability at 2.5 µM [1, 10]: 96.6%; viability at 2.5 µM [3, 11]: 96.6%; Doxorubicin 3.5 μM: percent cell survival [3, 12]: 98.4%; Oxaliplatin 100 μM: percent cell survival [3, 13]: 101.1%; Paclitaxel 50 μM: percent cell survival [3, 14]: 99.9%; Vincristine 100 nM: percent cell survival [3, 15]: 94.1%
CCCCCCOCCCCCOCCCn1cnc2cnc3ccccc3c21 [CF]	–	–	–	–	–	–	–	–	27.26	PC-3, percent of cancer cell survival relative to vehicle treated cells ([1]; 2.5 μM): 126.4%; 4T1 1 μM, percent of cancer cell survival relative to vehicle treated cells ([2]; 1 μM): 96.7%; 4T1 5 μM, percent of cancer cell survival relative to vehicle treated cells ([2]; 5 μM): 28.6%; Doxorubicin 3.5 μM: percent cell survival [3, 12]: 68.8%; Oxaliplatin 100 μM: percent cell survival [3, 13]: 83.5%; Paclitaxel 50 μM: percent cell survival [3, 14]: 70.3%; Vincristine 100 nM: percent cell survival [3, 15]: 75.3%; No Chemo: percent cell survival ([3]; compound 2.5 μM alone, Wst1, vehicle = 100): 126.4%
CCCCCCOCCCCCCCCNc1ccnc2ccccc12 [CH, N-[8-(Hexyloxy)octyl]quinolin-4-amine]	102	45.2	27.2	102	62.8	101.1	84.6	67.4	53.55	–
CCCCCCOCCCCCCNc1ccnc2ccccc12 [CK, N-[6-(Hexyloxy)hexyl]quinolin-4-amine]	–	62.5	45.3	–	–	–	–	–	42.23	viability at 0.5 µM [1, 4]: 51.4%; viability at 0.5 µM [3, 5]: 51.4%; Doxorubicin 3.5 μM: percent cell survival [3, 16]: 111.6%; Oxaliplatin 100 μM: percent cell survival [3, 17]: 143%; Paclitaxel 50 μM: percent cell survival [3, 18]: 64.2%; Vincristine 100 nM: percent cell survival [3, 19]: 138.2%
CCCCOCCCCCCNc1ccnc2ccccc12 [CL, N-(6-Butoxyhexyl)quinolin-4-amine]	58.1	25.6	19.5	58.1	22.6	23.2	50.3	27.7	29.43	activity relative to AC in the LPS-triggered THP-1 cell death assay, in words (THP-1 cells): equivalent activity to AC at both the 5-hour and 48-hour time points
c1ccc(COCCCCCCCCNc2ccnc3ccccc23)cc1 [CO, N-[8-(Benzyloxy)octyl]quinolin-4-amine]	77.1	28.4	55.6	77.1	28.4	29.2	51.6	32.8	43.95	–
CCCCCCOc1ccccc1OCCCCNc1ccnc2ccccc12 [CR, N-{4-[2-(Hexyloxy)phenoxy]butyl}quinolin-4-amine]	–	110	31.8	–	–	–	–	–	40.02	viability at 2.5 µM [1, 10]: 53.2%; viability at 2.5 µM [3, 11]: 53.2%; Doxorubicin 3.5 μM: percent cell survival [3, 12]: 87.6%; Oxaliplatin 100 μM: percent cell survival [3, 13]: 89.3%; Paclitaxel 50 μM: percent cell survival [3, 14]: 93.4%; Vincristine 100 nM: percent cell survival [3, 15]: 86.9%
CCCCCCOc1cccc(OCCCCNc2ccnc3ccccc23)c1 [CV, N-{4-[3-(Hexyloxy)phenoxy]butyl}quinolin-4-amine]	–	25.7	16.9	–	–	–	–	–	23.02	viability at 0.5 µM [1, 4]: 73.8%; viability at 0.5 µM [3, 5]: 73.8%; Doxorubicin 3.5 μM: percent cell survival [3, 16]: 36.2%; Oxaliplatin 100 μM: percent cell survival [3, 17]: 30.6%; Paclitaxel 50 μM: percent cell survival [3, 18]: 21.4%; Vincristine 100 nM: percent cell survival [3, 19]: 36.1%; activity relative to AC in the LPS-triggered THP-1 cell death assay, in words (THP-1 cells): equivalent activity to AC at both the 5-hour and 48-hour time points
CCCCCCOc1cccc(OCCNc2ccnc3ccccc23)c1 [CW, N-{2-[3-(Hexyloxy)phenoxy]ethyl}quinolin-4-amine]	98.5	25.1	18.4	98.5	31.9	26.6	55.9	69.4	43.71	–
CCCCCCOc1ccc(OCCCNc2ccnc3ccccc23)cc1 [CY, N-{3-[4-(Hexyloxy)phenoxy]propyl}quinolin-4-amine]	40.5	24.5	29.1	40.5	76.6	84.3	71.7	81.7	47.86	–
CC(C)(C)c1ccc(OCCCCCCCCNc2ccnc3ccccc23)cc1 [DA, N-[8-(4-tert-Butylphenoxy)octyl]quinolin-4-amine]	95.7	17.6	18.4	95.7	82.8	91.3	100.8	19.1	43.55	–
CCCCCCOCCCCCCCCn1ccc2ccccc21 [FW, 1-[8-(Hexyloxy)octyl]-1H-indole]	–	–	–	–	–	–	–	–	1.27	viability at 5 µM ([1]; Homo sapiens, PC-3, 5 μM, read-out: PC-3, percent of cancer cell survival relative to vehicle treated cells): 98.1%; viability at 5 µM ([3]; Homo sapiens, compound 5 μM alone, Wst1, vehicle = 100, read-out: No Chemo: percent cell survival): 98.1%; Doxorubicin 3.5 μM: percent cell survival ([3]; compound 5 μM + doxorubicin 3.5 μM): 102.7%; Oxaliplatin 100 μM: percent cell survival ([3]; compound 5 μM + oxaliplatin 100 μM): 109.6%; Paclitaxel 50 μM: percent cell survival ([3]; compound 5 μM + paclitaxel 50 μM): 128.5%; Vincristine 100 nM: percent cell survival ([3]; compound 5 μM + vincristine 100 nM): 104.6%
